Measured values: BindingDB's records for doi:10.1021/jm960509y (Abbott Laboratories, 1997)
*1 amine or outer side, *2 acyl side, *3 side chain or, on linkers, in order; H or OH if unused. Where a SMILES comes first, the peptide text is derived from it. Side-chain parts run from the residue outwards. [ ]: non-standard residue; d: D form. The star is where a group is joined. ξ: configuration not given here. NH(4-MeO-phenyl) = COc1ccc(N*)cc1; ξW = NC(Cc1c[nH]c2ccccc12)C(=O)O; pNA = O=[N+]([O-])c1ccc(N*)cc1; X2 = O=[N+]([O-])c1cccc(N*)c1; NH(3-MeOPh) = COc1cccc(N*)c1; 3Abz = Nc1cccc(C(=O)O)c1; ξF = NC(Cc1ccccc1)C(=O)O; X1 = CC(=O)c1ccc(N*)cc1; ξD = NC(CC(=O)O)C(=O)O; Boc = CC(C)(C)OC(=O)*; CO = O=C([*:1])[*:2]

What was measured:
[1] = molecular target: Gastrin/cholecystokinin type B receptor (Cavia porcellus); assay: Displacement of [125I]- BH-CCK-8 from Cholecystokinin type B receptor of guinea pig cortex
[2] = molecular target: Gastrin/cholecystokinin type B receptor (Cavia porcellus); assay: Inhibitory activity against Cholecystokinin type B receptor using [125I]- BH-CCK-8 as radioligand in cortex tissue of guinea pig

Structure (SMILES)	IC50 [1] [nM]	IC50 [2] [nM]
COC(=O)c1cccc(NC(=O)NCCCC[C@H](NC(=O)C(Cc2c[nH]c3ccccc23)NC(=O)OC(C)(C)C)C(=O)NC(CC(=O)O)C(=O)NC(Cc2ccccc2)C(N)=O)c1 (some centres not stated) (Boc-[ξW]K([CO-3Abz-OMe])[ξD][ξF]-NH2)	1000	–
CSCCC(NC(=O)NC(CC(=O)O)C(=O)NC(Cc1ccccc1)C(N)=O)C(=O)NC(=O)C(Cc1c[nH]c2ccccc12)NC(=O)OC(C)(C)C (configuration not stated) [3-(3-{1-[2-tert-Butoxycarbonylamino-3-(1H-indol-3-yl)-propionylcarbamoyl]-3-methylsulfanyl-propyl}-ureido)-N-(1-carbamoyl-2-phenyl-ethyl)-succinamic acid]	–	25
COc1cccc(NC(=O)NCCCC[C@H](NC(=O)C(Cc2c[nH]c3ccccc23)NC(=O)OC(C)(C)C)C(=O)NC(CC(=O)O)C(=O)NC(Cc2ccccc2)C(N)=O)c1 (stereo partly drawn) [3-{(S)-2-[2-tert-Butoxycarbonylamino-3-(1H-indol-3-yl)-propionylamino]-6-[3-(3-methoxy-phenyl)-ureido]-hexanoylamino}-N-(1-carbamoyl-2-phenyl-ethyl)-succinamic acid] (Boc-[ξW]K([CO-NH(3-MeOPh)])[ξD][ξF]-NH2)	1400	–
CC(C)(C)OC(=O)N[C@@H](Cc1c[nH]c2ccccc12)C(=O)N[C@@H](CCCCNC(=O)Nc1cccc([N+](=O)[O-])c1)C(=O)N[C@@H](CC(=O)O)C(=O)N[C@@H](Cc1ccccc1)C(N)=O [3-{(S)-2-[2-tert-Butoxycarbonylamino-3-(1H-indol-3-yl)-propionylamino]-6-[3-(3-nitro-phenyl)-ureido]-hexanoylamino}-N-(1-carbamoyl-2-phenyl-ethyl)-succinamic acid] (Boc-WK([CO-X2])DF-NH2)	1200	–
COc1ccc(NC(=O)NCCCC[C@H](NC(=O)C(Cc2c[nH]c3ccccc23)NC(=O)OC(C)(C)C)C(=O)NC(CC(=O)O)C(=O)NC(Cc2ccccc2)C(N)=O)cc1 (stereo partly drawn) [3-{(S)-2-[2-tert-Butoxycarbonylamino-3-(1H-indol-3-yl)-propionylamino]-6-[3-(4-methoxy-phenyl)-ureido]-hexanoylamino}-N-(1-carbamoyl-2-phenyl-ethyl)-succinamic acid] (Boc-[ξW]K([CO-NH(4-MeO-phenyl)])[ξD][ξF]-NH2)	750	–
CC(C)(C)OC(=O)NC(Cc1c[nH]c2ccccc12)C(=O)N[C@@H](CCCCNC(=O)Nc1ccc([N+](=O)[O-])cc1)C(=O)NC(CC(=O)O)C(=O)NC(Cc1ccccc1)C(N)=O (stereo partly drawn) [3-{(S)-2-[2-tert-Butoxycarbonylamino-3-(1H-indol-3-yl)-propionylamino]-6-[3-(4-nitro-phenyl)-ureido]-hexanoylamino}-N-(1-carbamoyl-2-phenyl-ethyl)-succinamic acid] (Boc-[ξW]K([CO-pNA])[ξD][ξF]-NH2)	31	–
CC(=O)c1ccc(NC(=O)NCCCC[C@H](NC(=O)C(Cc2c[nH]c3ccccc23)NC(=O)OC(C)(C)C)C(=O)NC(CC(=O)O)C(=O)NC(Cc2ccccc2)C(N)=O)cc1 (stereo partly drawn) [3-{(S)-6-[3-(4-Acetyl-phenyl)-ureido]-2-[2-tert-butoxycarbonylamino-3-(1H-indol-3-yl)-propionylamino]-hexanoylamino}-N-(1-carbamoyl-2-phenyl-ethyl)-succinamic acid] (Boc-[ξW]K([CO-X1])[ξD][ξF]-NH2)	12	–
